From patent US20220323406A1, “METHODS AND COMPOSITIONS FOR DIFFERENTIATING STEM CELLS” (Massachusetts Institute of Technology, priority 2019, published 2022)

What was measured:
[1] = system: ENR+CD organoids (ISC to Paneth cell differentiation); assay: Secondary (validation) screen: LYZ.NS basal lysozyme secretion, 2.5-D 384-well ENR+CD organoids; type: cell-based, mouse; conditions: for Dose.FC.LYZ.NS / Z.LYZ.NS / repSSMD.LYZ.NS: 6-day ENR+CD, vs ENR+CD+DMSO
Experimental: (§1) Drugs were tested at a narrowed dose range around each treatment's identified optimal dose from the primary screen (4× below, 2× above and below).
(§2) High-throughput screening.
(§3) Secondary lysozyme secretion assay screen. Confirmatory secondary screening with primary hits was performed using the above 384-well plate method. The screen was conducted with 4-plate replicates with a base media of ENR+CD. Media was supplemented with compound at day 0 and day 3 (n=8 well replicates per dose) at four different doses: two-fold above, two-fold below, and four-fold below the optimal final dose for each respective treatment. Additionally, each plate carried a large number of ENR+DMSO or ENR+CD+DMSO (vehicle) control wells (n=100 for ATP, and n=25 for LYZ.NS and LYZ.S) for robust normalization. ATP, non-stimulated lysozyme activity and CCh-stimulated lysozyme activity was again measured and the collected data was again processed in a custom R-script, per primary screen with slight modification. Values were log10 transformed, and a plate-wise FC was calculated for each well based on the median value of ENR+CD+DMSO (vehicle) control wells to normalize plate to plate variability.

[2] = system: ENR+CD organoids (ISC to Paneth cell differentiation); assay: Primary screen: CCh-stimulated lysozyme secretion LYZ.S, 2.5-D 384-well ENR+CD organoid differentiation; type: cell-based, mouse; conditions: primary screen
Source text: as §2

[3] = system: ENR+CD organoids (ISC to Paneth cell differentiation); assay: Secondary (validation) screen: LYZ.S CCh-stimulated lysozyme secretion, 2.5-D 384-well ENR+CD organoids; type: cell-based, mouse; conditions: 6-day ENR+CD, vs ENR+CD+DMSO
Experimental: as §1, §2, §3

[4] = system: ENR+CD organoids (ISC to Paneth cell differentiation); assay: Primary screen: basal (non-stimulated) lysozyme secretion LYZ.NS, 2.5-D 384-well ENR+CD organoid differentiation; type: cell-based, mouse; conditions: for Z.LYZ.NS / Dose.FC.LYZ.NS: primary screen; for Z.LYZ.NS: standard z score
Source text: as §2

ENR+CD organoids [5] = assay: Primary screen: ATP (CellTiter-Glo 3D, CTG) cell number/viability, 2.5-D 384-well ENR+CD organoids; conditions: primary screen; for Z.CTG: standard z score;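 on all read-outs here: compounds given at plating and again on day 3 over a 6-day differentiation from ENR+CV stem-cell-enriched precursors, ATP measured on day 6, plate median as control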
ENR+CD organoids [6] = assay: Secondary (validation) screen: ATP (CTG) assay, 2.5-D 384-well ENR+CD organoids; type: cell-based, mouse; conditions: 6-day ENR+CD, vs ENR+CD+DMSO
Experimental: as §1, §2, §3

[7] = dose 0.08 uM, FC vs plate median
[8] = dose 0.40 uM, FC vs plate median
[9] = dose 2.00 uM, FC vs plate median
[10] = dose 10.00 uM, FC vs plate median
[11] = dose 0.08 uM, FC relative to plate median
[12] = dose 0.40 uM, FC relative to plate median
[13] = dose 2.00 uM, FC relative to plate median
[14] = dose 10.00 uM, FC relative to plate median

`Cc1[nH]c(/C=C2\C(=O)Nc3ccc(S(=O)(=O)Cc4c(Cl)cccc4Cl)cc32)c(C)c1C(=O)N1CCC[C@@H]1CN1CCCC1` [PHA-665752] was tested, and the Dose.FC.LYZ.NS ([1]; 0.10 uM) was 0.210 log2 fold change, the Z.LYZ.NS ([1]; 0.10 uM) was 1.675 and the repSSMD.LYZ.NS ([1]; 0.10 uM) was 2.400. For the same molecule, the Dose.FC.LYZ.NS ([1]; 0.20 uM) was −0.027 log2 fold change, the Z.LYZ.NS ([1]; 0.20 uM) was −0.219 and the repSSMD.LYZ.NS ([1]; 0.20 uM) was −0.350. It also gave a Dose.FC.LYZ.NS ([1]; 0.40 uM) of 0.099 log2 fold change, a Z.LYZ.NS ([1]; 0.40 uM) of 0.789 and a repSSMD.LYZ.NS ([1]; 0.40 uM) of 0.942. The Dose.FC.LYZ.NS ([1]; 0.80 uM) was 0.090 log2 fold change, the Z.LYZ.NS ([1]; 0.80 uM) was 0.722 and the repSSMD.LYZ.NS ([1]; 0.80 uM) was 1.142. The “validated doses in secondary screen (SSMD above cutoff in both LYZ assays)” value ([1]; LYZ.NS and LYZ.S) was “multiple validated doses”, the Dose.FC.LYZ.S [2, 7] was 0.163 log2 fold change and the Dose.FC.LYZ.S [2, 8] was 0.373 log2 fold change. For the same molecule, the Dose.FC.LYZ.S [2, 9] was 0.143 log2 fold change, the Dose.FC.LYZ.S [2, 10] was −0.165 log2 fold change and the Dose.FC.LYZ.S ([3]; 0.10 uM) was 0.133 log2 fold change. For the same molecule, the Z.LYZ.S ([3]; 0.10 uM) was 1.019, the repSSMD.LYZ.S ([3]; 0.10 uM) was 1.586 and the Dose.FC.LYZ.S ([3]; 0.20 uM) was −0.089 log2 fold change. For the same molecule, the Z.LYZ.S ([3]; 0.20 uM) was −0.680, the repSSMD.LYZ.S ([3]; 0.20 uM) was −1.201 and the Dose.FC.LYZ.S ([3]; 0.40 uM) was 0.076 log2 fold change. It also gave a Z.LYZ.S ([3]; 0.40 uM) of 0.585, a repSSMD.LYZ.S ([3]; 0.40 uM) of 0.906 and a Dose.FC.LYZ.S ([3]; 0.80 uM) of 0.048 log2 fold change. It also gave a Z.LYZ.S ([3]; 0.80 uM) of 0.365, a repSSMD.LYZ.S ([3]; 0.80 uM) of 0.542 and a Z.LYZ.NS ([4]; dose 0.08 uM) of 1.586. For the same molecule, the Z.LYZ.NS ([4]; dose 0.40 uM) was 2.368, the Z.LYZ.NS ([4]; dose 2.00 uM) was 1.591 and the Z.LYZ.NS ([4]; dose 10.00 uM) was −0.931. The Dose.FC.LYZ.NS [4, 7] was 0.182 log2 fold change, the Dose.FC.LYZ.NS [4, 8] was 0.272 log2 fold change and the Dose.FC.LYZ.NS [4, 9] was 0.183 log2 fold change. For the same molecule, the Dose.FC.LYZ.NS [4, 10] was −0.107 log2 fold change, the Z.CTG (ENR+CD organoids [5]; dose 0.08 uM) was 1.126 and the Z.CTG (ENR+CD organoids [5]; dose 0.40 uM) was 1.482. For the same molecule, the Z.CTG (ENR+CD organoids [5]; dose 2.00 uM) was 1.339, the Z.CTG (ENR+CD organoids [5]; dose 10.00 uM) was 0.057 and the Dose.FC.CTG (ENR+CD organoids [5]; [7]) was 0.471 log2 fold change. The Dose.FC.CTG (ENR+CD organoids [5]; [8]) was 0.620 log2 fold change, the Dose.FC.CTG (ENR+CD organoids [5]; [9]) was 0.561 log2 fold change and the Dose.FC.CTG (ENR+CD organoids [5]; [10]) was 0.024 log2 fold change. It also gave a Dose.FC.CTG (ENR+CD organoids [6]; 0.10 uM) of 0.100 log2 fold change, a Z.CTG (ENR+CD organoids [6]; 0.10 uM) of 0.898 and a repSSMD.CTG (ENR+CD organoids [6]; 0.10 uM) of 0.755. For the same molecule, the Dose.FC.CTG (ENR+CD organoids [6]; 0.20 uM) was −0.032 log2 fold change, the Z.CTG (ENR+CD organoids [6]; 0.20 uM) was −0.288 and the repSSMD.CTG (ENR+CD organoids [6]; 0.20 uM) was −0.244. It also gave a Dose.FC.CTG (ENR+CD organoids [6]; 0.40 uM) of 0.303 log2 fold change, a Z.CTG (ENR+CD organoids [6]; 0.40 uM) of 2.735 and a repSSMD.CTG (ENR+CD organoids [6]; 0.40 uM) of 1.415. It also gave a Dose.FC.CTG (ENR+CD organoids [6]; 0.80 uM) of 0.185 log2 fold change, a Z.CTG (ENR+CD organoids [6]; 0.80 uM) of 1.664 and a repSSMD.CTG (ENR+CD organoids [6]; 0.80 uM) of 1.023.
`COc1ccc(C2CNC(=O)C2)cc1OC1CCCC1` (centres unmarked) [Rolipram, reference compound] was tested, and the Dose.FC.LYZ.NS ([1]; 0.50 uM) was −0.043 log2 fold change, the Dose.FC.LYZ.NS ([1]; 1.00 uM) was 0.152 log2 fold change and the Dose.FC.LYZ.NS ([1]; 2.00 uM) was 0.099 log2 fold change. The Dose.FC.LYZ.NS ([1]; 4.00 uM) was −0.051 log2 fold change, the Dose.FC.LYZ.S [2, 11] was 0.239 log2 fold change and the Dose.FC.LYZ.S [2, 12] was 0.156 log2 fold change. For the same molecule, the Dose.FC.LYZ.S [2, 13] was 0.337 log2 fold change, the Dose.FC.LYZ.S [2, 14] was 0.223 log2 fold change and the Dose.FC.LYZ.S ([3]; 0.50 uM) was −0.082 log2 fold change. It also gave a Dose.FC.LYZ.S ([3]; 1.00 uM) of 0.104 log2 fold change, a Dose.FC.LYZ.S ([3]; 2.00 uM) of 0.030 log2 fold change and a Dose.FC.LYZ.S ([3]; 4.00 uM) of −0.071 log2 fold change. The “primary screen hit call (SSMD and z-scored FC cutoffs in both LYZ assays)” value ([4]; LYZ.NS and LYZ.S, 0.08-10 uM, 6 days ENR+CD) was “sole hit in their respective pathway”, the Dose.FC.LYZ.NS [4, 11] was 0.406 log2 fold change and the Z.LYZ.NS ([4]; dose 0.08 uM) was 3.532. The Dose.FC.LYZ.NS [4, 12] was 0.063 log2 fold change, the Z.LYZ.NS ([4]; dose 0.40 uM) was 0.545 and the Dose.FC.LYZ.NS [4, 13] was 0.169 log2 fold change. It also gave a Z.LYZ.NS ([4]; dose 2.00 uM) of 1.470, a Dose.FC.LYZ.NS [4, 14] of 0.112 log2 fold change and a Z.LYZ.NS ([4]; dose 10.00 uM) of 0.975. The Dose.FC.CTG (ENR+CD organoids [5]; [11]) was 0.356 log2 fold change, the Dose.FC.CTG (ENR+CD organoids [5]; [12]) was 0.155 log2 fold change and the Dose.FC.CTG (ENR+CD organoids [5]; [13]) was 0.396 log2 fold change. For the same molecule, the Dose.FC.CTG (ENR+CD organoids [5]; [14]) was 0.299 log2 fold change, the Dose.FC.CTG (ENR+CD organoids [6]; 0.50 uM) was 0.053 log2 fold change and the Dose.FC.CTG (ENR+CD organoids [6]; 1.00 uM) was 0.133 log2 fold change. For the same molecule, the Dose.FC.CTG (ENR+CD organoids [6]; 2.00 uM) was 0.202 log2 fold change and the Dose.FC.CTG (ENR+CD organoids [6]; 4.00 uM) was 0.065 log2 fold change.
